The text below walks through data of PMC5449454, “Anti-Double-Stranded DNA IgG Participates in Renal Fibrosis through Suppressing the Suppressor of Cytokine Signaling 1 Signals” (Frontiers in Immunology, 2017).

For this experiment, the system named is mesangial cells. Briefly: Real-time PCR, mesangial cells. The format is cell-based, murine. The following applies: anti-dsDNA IgG 2 µg/ml premixed with peptide 1 µg/ml, 2 days. The protocol: Immortal murine mesangial cells and glomerular endothelial cells (Jieqing Biotech, Wuhan, China) were cultured in RPMI 1640 medium supplemented with 10% fetal bovine serum ([8], [33]). Immortal murine proximal tubular epithelial cells (kindly provided by Dr. Cheng Pan, Wuhan University, China) were cultured in Dulbecco’s modified Eagle’s medium as described previously ([34]).
By using a HiTrap purification kit (GE Healthcare, Port Washington, NY, USA) ([8]), anti-dsDNA IgG was purified from the culture supernatants of murine WJ31 hydridoma clone (IgG2a; Jieqing Biotech). Control murine IgG (IgG2a; Jieqing Biotech) was verified by enzyme-linked immunosorbent assay (ELISA) to determine that there was no binding to DNA antigen (data not shown). Cells were starved routinely before the 2-day stimulation of anti-dsDNA IgG or control IgG (2 µg/ml). In some experiments, mesangial cells were stimulated with anti-dsDNA IgG (2 µg/ml) that was premixed with D-form (ALWPPNLHAWVP) or scrambled (PLPHNPWVLAAW) ALW peptide (1 µg/ml). The cell viability of three types of cells was measured using PrestoBlue viability reagent (Life Technologies, Carlsbad, CA, USA).
As previously described ([8]), total RNA was extracted from fresh tissues or cultured cells, followed by reverse transcription. The 7900HT Fast PCR System (Applied Biosystems, Carlsbad, CA, USA) was used for PCR, and SYBR Green Master Mixes (Invitrogen, Grand Island, NY, USA) was used as fluorescent dye. The sequences of primers (Jieqing Biotech) are listed in Table S2 in Supplementary Material.
In general terms: Quantitative PCR measures a nucleic acid by following its amplification.

For the sequence “ALWPPNLHAWVP [D-form ALW, ALW peptide with two terminal residues A and P replaced with D-form ones]”, the “CTGF mRNA expression level, ALW plus anti-dsDNA IgG” value is recorded as “significantly reduced”; the “Fn14 mRNA expression level, ALW plus anti-dsDNA IgG” value is “significantly reduced”; the “JAK2 mRNA level, ALW plus anti-dsDNA IgG” value was “decreased”; the “PDGFB mRNA expression level, ALW plus anti-dsDNA IgG” value was “significantly reduced”. In addition, the “SOCS1 mRNA expression level, ALW plus anti-dsDNA IgG” value is “did not affect” and the “STAT1 mRNA level, ALW plus anti-dsDNA IgG” value is on record as “decreased”.
